Read-outs that look alike come from different tables or passages of the source.
Key:
[1] = Enhanced dose range-finding embryo-fetal development study of compound 16 by oral gavage in Wistar Han rats; settings: female, Wistar Han, rat, in vivo, po
Experimental: (§1) The effects of compound 16 on pregnant Wistar Han rats and development of the embryo consequent to exposure of the female from implantation to closure of the hard palate were evaluated. Compound 16 was administered to 4 groups of presumed pregnant rats (8/group) at doses of 0 (vehicle), 125, 250, and 500 mg/kg/day via once daily gavage administration during organogenesis (gestation days [GD] 6 to 17) at a dose volume of 5 mL/kg. Additional pregnant rats were similarly dosed for toxicokinetic assessment of compound 16 and compound 1. Assessment of toxicity to the pregnant rats was based on mortality, clinical observations, body weights and food consumption. Rats were necropsied and cesarean sectioned on GD 21. An examination of the external features of the carcass; external body orifices; abdominal, thoracic, pelvic, and oral cavities; organs; and tissues was performed. Any macroscopic abnormalities were noted. Pregnancy status was determined. The uterus from each pregnant animal was excised, weighed, and examined for the number and placement of live and dead fetuses, the number of early or late resorptions, and any abnormalities. The right and left ovaries from each pregnant female were examined for the number of corpora lutea. Each fetus was sexed, weighed, and examined for external abnormalities. […]

[2] = system: pregnant Wistar Han rats; test: as above; settings: rat, in vivo
Experimental: as §1

[3] = Embryo-fetal development study of compound 16 by oral gavage in Wistar Han rats; type: in vivo; settings: female, rat, in vivo; pregnant Wistar Han rats, once daily oral gavage GD 6 to 17, definitive study; read-out: no-observed-adverse-effect level (NOAEL) for maternal toxicity and embryofetal development
Experimental: (§2) The potential of compound 16 to induce developmental toxicity after maternal exposure during the critical period of organogenesis (GD 6 through 17) were evaluated, maternal toxicity at the exposure levels tested was characterized, and a no observed-adverse-effect level (NOAEL) for maternal toxicity and developmental toxicity following oral administration in Wistar Han rats was determined.
(§3) Rats were necropsied and cesarean sectioned on GD 21. […] Any macroscopic abnormalities were noted. Pregnancy status was determined. […] The thoracic and abdominal cavities were opened and dissected using a technique described by Stuckhardt and Poppe (1984). Fetal kidneys were examined and graded for renal papillae development (Woo and Hoar, 1972). The heads from these fetuses were removed and placed in Harrison's fixative for soft tissue examination using the Wilson sectioning technique (Wilson, 1965). The remaining fetuses (approximately one-half from each litter), were eviscerated, fixed in 100% ethyl alcohol, macerated in potassium hydroxide and stained with Alizarin Red S by a method similar to that described by Dawson (1926) for subsequent examination of skeletons.

[4] = system: pregnant Wistar Han rats; test: as above; type: in vivo; settings: 125 and 250 mg/kg/day, GD 6 to 17, rats
Experimental: as §2, §3

[5] = Oral gavage embryo-fetal development study with compound 16 in rabbits; settings: female, New Zealand White, rabbit, in vivo, po
Experimental: (§4) The effects of compound 16 on pregnant New Zealand White (NZW) rabbits and the development of the embryo consequent to exposure of the female from implantation to closure of the hard palate (Gestation Days [GD] 7 through 19) was evaluated. Compound 16 was administered to 4 groups of pregnant rabbits (20/group) at doses of 0 (0.5% methylcellulose in deionized water), 125, 250, and 500 mg/kg/day once daily via oral gavage during organogenesis (GD 7 to 19). Assessment of toxicity was based on mortality, clinical observations, body weights, food consumption, and necropsy and cesarean section findings. In addition, blood samples were collected for toxicokinetic evaluation of compound 16 and compound 1 from similarly dosed animals (4/group).

[6] = system: pregnant New Zealand White (NZW) rabbits; test: as above
Experimental: as §4

[7] = system: SARS-CoV-2 Fluc; type: cell-based
[8] = female, Wistar Han, rat, in vivo, po, 250 mg/kg/day
Experimental: as §1

[9] = female, New Zealand White, rabbit, in vivo, po, 125 mg/kg/day
Experimental: as §4

SMILES	NOAEL [1] [mg/kg/day]	tolerability of dose level [2]	NOAEL [3] [mg/kg/day]	effects on intrauterine growth or survival [4]	external, visceral or skeletal malformations or variations [4]	NOAEL [5] [mg/kg/day]	skeletal malformations ([6]; rabbit fetuses)	fetal visceral findings ([6]; rabbit, in vivo, 250 mg/kg/day)	Bliss independence consensus score, Average of Replicates [7]	drug combination effect by Bliss score [7]	compound 1 AUC0-24h exposure [8]	compound 1 AUC0-24h exposure [9]
CC(C)C(=O)OC[C@H]1O[C@@](C#N)(c2ccc3c(N)ncnn23)[C@H](O)[C@@H]1O [Compound 16]	250	not tolerated	250	No compound 16-related effects	No compound 16-related external, visceral or skeletal malformations or variations	125	No compound 16-related skeletal malformations	increased rates of ventricular septum defects, large or small heart ventricles, dilated or malpositioned aortas, retroesophageal aortic arches, retroesophageal subclavian arteries, abnormal lobulation of the liver	6.15±2.16	Additive		
N#C[C@@]1(c2ccc3c(N)ncnn23)O[C@H](CO)[C@@H](O)[C@H]1O [Compound 1]									8.00±1.09	Additive	183,000 ng*h/mL	64,100 ng*h/mL
CC(C)C(=O)OC[C@H]1O[C@@H](n2ccc(NO)nc2=O)[C@H](O)[C@@H]1O [molnupiravir, Molnupiravir, reference compound]									−2.47	Additive		
CC(C)(C)[C@H](NC(=O)C(F)(F)F)C(=O)N1C[C@H]2[C@@H]([C@H]1C(=O)N[C@H](C#N)C[C@@H]1CCNC1=O)C2(C)C [nirmatrelvir, reference compound]									0.13±1.53	Additive		
